Measured values from article PMC8969509 (Journal of Antimicrobial Chemotherapy, 2022).

Target: T1, Mtb topoisomerase I (Mycobacterium tuberculosis, UniProt P9WG49)
T1 construct: gene topA
Assay: biochemical

T1 sequence (P9WG49 whole entry): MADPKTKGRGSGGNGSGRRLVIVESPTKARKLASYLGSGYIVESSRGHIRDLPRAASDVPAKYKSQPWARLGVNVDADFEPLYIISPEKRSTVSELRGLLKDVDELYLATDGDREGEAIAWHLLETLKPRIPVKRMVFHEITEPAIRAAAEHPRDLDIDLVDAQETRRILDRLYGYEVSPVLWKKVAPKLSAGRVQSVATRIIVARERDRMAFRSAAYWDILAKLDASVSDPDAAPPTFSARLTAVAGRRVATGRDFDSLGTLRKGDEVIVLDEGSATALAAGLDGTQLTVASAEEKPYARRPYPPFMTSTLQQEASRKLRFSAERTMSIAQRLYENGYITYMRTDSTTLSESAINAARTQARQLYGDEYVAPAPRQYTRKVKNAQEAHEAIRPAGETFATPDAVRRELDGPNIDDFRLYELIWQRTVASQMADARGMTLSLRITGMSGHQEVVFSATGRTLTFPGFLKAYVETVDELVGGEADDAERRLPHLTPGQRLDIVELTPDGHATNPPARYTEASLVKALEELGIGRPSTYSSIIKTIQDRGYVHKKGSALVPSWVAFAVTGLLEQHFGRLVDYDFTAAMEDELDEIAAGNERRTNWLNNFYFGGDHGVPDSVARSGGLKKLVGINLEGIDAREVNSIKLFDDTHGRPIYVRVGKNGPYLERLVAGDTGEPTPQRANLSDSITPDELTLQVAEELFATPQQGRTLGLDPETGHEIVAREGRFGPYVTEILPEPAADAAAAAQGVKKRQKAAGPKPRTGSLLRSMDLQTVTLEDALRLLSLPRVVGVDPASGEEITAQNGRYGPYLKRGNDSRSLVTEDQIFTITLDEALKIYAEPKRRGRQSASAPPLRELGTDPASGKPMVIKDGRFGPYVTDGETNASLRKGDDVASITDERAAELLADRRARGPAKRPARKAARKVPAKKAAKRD

`COc1cc(NS(C)(=O)=O)ccc1Nc1c2ccccc2nc2ccccc12` [mAMSA] was tested, and the IC50 was 17.4 µM.
